# System: Bovine cardiac myofibrils
# Test: In vitro model of dose-dependent myofibril ATPase modulation (AC1.4, pyruvate kinase/lactate dehydrogenase-coupled ATPase assay at pCa25)
# Format: biochemical
# Conditions: concentration at which ATPase activity was 1.4-fold higher than the bottom of the dose curve, mean of a minimum of two independent tests
# In short: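 ATP turnover tracked as NADH absorbance loss at 340 nm, coupled via pyruvate kinase/lactate dehydrogenase, with 1 mM ATP, 2 mM MgCl2 and 12 mM K-PIPES at pH 6.80 (22° C) under EGTA/CaCl2 calcium buffering. Substrate was detergent-treated bovine cardiac myofibrils; 4-parameter curve fit, AC1.4 averaged over at least two runs.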
row,Structure (SMILES),AC1.4 [µM]
1,"CC(C)(C(N)=O)c1cccc(C(=O)N2[C@@H](C(=O)N[C@@H](c3cc(F)c(Cl)cc3F)C3COC3)C[C@H]3C[C@H]32)c1 [Example 263, (1R,3R,5R)-2-(3-(1-amino-2-methyl-1-oxo-2-propanyl)benzoyl)-N-((R)-(4-chloro-2,5-difluorophenyl)(3-oxetanyl)methyl)-2-azabicyclo[3.1.0]hexane-3-carboxamide]",0.6526
2,"CS(=O)(=O)c1cccc(C(=O)N2[C@@H](C(=O)N[C@@H](c3ccc(Cl)c(F)c3)C3COC3)C[C@H]3C[C@H]32)c1 [Example 264, (1R,3R,5R)-N-((R)-(4-chloro-3-fluorophenyl)(3-oxetanyl)methyl)-2-(3-(methylsulfonyl)benzoyl)-2-azabicyclo[3.1.0]hexane-3-carboxamide]",0.6615
3,"O=C(N[C@@H](c1cc(F)c(Cl)cc1F)C1CC1)[C@H]1C[C@H]2C[C@H]2N1C(=O)c1cc(C(F)(F)F)ccn1 [Example 266, (1R,3R,5R)-N-((R)-(4-chloro-2,5-difluorophenyl)(cyclopropyl)methyl)-2-((4-(trifluoromethyl)-2-pyridinyl)carbonyl)-2-azabicyclo[3.1.0]hexane-3-carboxamide]",0.6674
4,"N#CC1CN(S(=O)(=O)N2CCC[C@H](C(=O)N3CCC[C@@H]3C(=O)NC(c3ccccc3)c3ccc(Cl)cc3)C2)C1 (stereo partly drawn) [Example 268, (2R)-N-((4-chlorophenyl)(phenyl)methyl)-1-((S)-1-((3-cyanoazetidin-1-yl)sulfonyl)piperidine-3-carbonyl)pyrrolidine-2-carboxamide]",0.6764
5,"CS(=O)(=O)c1ccnc(C(=O)N2C[C@@H](F)C[C@@H]2C(=O)N[C@@H](c2cc(F)c(Cl)cc2F)C2CC2)c1 [Example 269, (4S)-N-((R)-(4-chloro-2,5-difluorophenyl)(cyclopropyl)methyl)-4-fluoro-1-((4-(methylsulfonyl)-2-pyridinyl)carbonyl)-D-prolinamide]",0.6767
6,"C[C@H]1[C@@H](C(=O)N2CCC[C@@H]2C(=O)NCc2ccc(C(F)(F)F)cc2)CCCN1S(=O)(=O)N1CC(C#N)C1 [Example 271, 1-(((2S,3S)-1-((3-cyano-1-azetidinyl)sulfonyl)-2-methyl-3-piperidinyl)carbonyl)-N-(4-(trifluoromethyl)benzyl)-D-prolinamide]",0.6874
7,"N#CC1CN(S(=O)(=O)N2CCC[C@H](C(=O)N3CCC[C@@H]3C(=O)NCc3ccc(F)c(Cl)c3)C2)C1 [Example 272, N-(3-chloro-4-fluorobenzyl)-1-(((3S)-1-((3-cyano-1-azetidinyl)sulfonyl)-3-piperidinyl)carbonyl)-D-prolinamide]",0.6904
8,"CS(=O)(=O)c1cccc(C(=O)N2C[C@@H](F)C[C@@H]2C(=O)N[C@@H](c2ccc(C(F)(F)F)c(F)c2)C2COC2)c1 [Example 273, (4S)-4-fluoro-N-((R)-(3-fluoro-4-(trifluoromethyl)phenyl)(3-oxetanyl)methyl)-1-(3-(methylsulfonyl)benzoyl)-D-prolinamide]",0.6841
9,"O=C(NCc1ccc(C(F)(F)F)cc1)[C@H]1CCCN1C(=O)[C@H]1CCCN(S(=O)(=O)N2CC(C(F)F)C2)C1 [Example 274, 1-(((3S)-1-((3-(difluoromethyl)-1-azetidinyl)sulfonyl)-3-piperidinyl)carbonyl)-N-(4-(trifluoromethyl)benzyl)-D-prolinamide]",0.6977
10,"CCS(=O)(=O)c1cccc(C(=O)N2[C@@H](C(=O)N[C@@H](c3ccc(C(F)(F)F)cc3)C3COC3)C[C@H]3C[C@H]32)c1 [Example 275, (1R,3R,5R)-2-(3-(ethylsulfonyl)benzoyl)-N-((R)-3-oxetanyl(4-(trifluoromethyl)phenyl)methyl)-2-azabicyclo[3.1.0]hexane-3-carboxamide]",0.6922
11,"N#CC1CN(S(=O)(=O)N2CCC[C@H](C(=O)N3CCC[C@@H]3C(=O)NC3CC(CO)c4ccccc43)C2)C1 (stereo partly drawn) [Example 276, (2R)-1-((S)-1-((3-cyanoazetidin-1-yl)sulfonyl)piperidine-3-carbonyl)-N-(3-(hydroxymethyl)-2,3-dihydro-1H-inden-1-yl)pyrrolidine-2-carboxamide]",0.7014
12,"CS(=O)(=O)N1CCC[C@H](C(=O)N2[C@@H](C(=O)N[C@@H](c3cc(F)c(Cl)cc3F)C3CC3)C[C@H]3C[C@H]32)C1 [Example 277, (1R,3R,5R)-N-((R)-(4-chloro-2,5-difluorophenyl)(cyclopropyl)methyl)-2-(((3S)-1-(methylsulfonyl)-3-piperidinyl)carbonyl)-2-azabicyclo[3.1.0]hexane-3-carboxamide]",0.7027
13,"CS(=O)(=O)c1cccc(C(=O)N2[C@@H](C(=O)N[C@@H](c3cc(F)c(Cl)c(F)c3)C3CC3)C[C@H]3C[C@H]32)c1 [Example 278, (1R,3R,5R)-N-((R)-(4-chloro-3,5-difluorophenyl)(cyclopropyl)methyl)-2-(3-(methylsulfonyl)benzoyl)-2-azabicyclo[3.1.0]hexane-3-carboxamide]",0.7012
14,"NS(=O)(=O)c1cccc(C(=O)N2C[C@@H](F)C[C@@H]2C(=O)N[C@@H](c2cc(F)c(Cl)cc2F)C2CC2)c1 [Example 280, (4S)-N-((R)-(4-chloro-2,5-difluorophenyl)(cyclopropyl)methyl)-4-fluoro-1-(3-sulfamoylbenzoyl)-D-prolinamide]",0.713
15,"O=C(N[C@@H](c1ccc(C(F)(F)F)cc1F)C1CC1)[C@H]1CCCN1C(=O)c1cccc(S(=O)(=O)CC(F)(F)F)c1 [Example 281, N-((R)-cyclopropyl(2-fluoro-4-(trifluoromethyl)phenyl)methyl)-1-(3-((2,2,2-trifluoroethyl)sulfonyl)benzoyl)-D-prolinamide]",0.7104
16,"O=C(N[C@@H](c1cc(F)c(Cl)cc1F)C1COC1)[C@H]1C[C@H]2C[C@H]2N1C(=O)c1cncc(C(F)(F)F)c1 [Example 282, (1R,3R,5R)-N-((R)-(4-chloro-2,5-difluorophenyl)(3-oxetanyl)methyl)-2-((5-(trifluoromethyl)-3-pyridinyl)carbonyl)-2-azabicyclo[3.1.0]hexane-3-carboxamide]",0.7195
17,"N#CC1CN(S(=O)(=O)c2cccc(C(=O)N3CCC[C@@H]3C(=O)NCc3ccc(C4CC4)cc3)c2)C1 [Example 283, 1-((3-((3-cyano-1-azetidinyl)sulfonyl)phenyl)carbonyl)-N-(4-cyclopropylbenzyl)-D-prolinamide]",0.7288
18,"N#CC1CN(S(=O)(=O)N2CCC[C@H](C(=O)N3CCC[C@@H]3C(=O)NCc3ccc(F)cc3Cl)C2)C1 [Example 284, N-(2-chloro-4-fluorobenzyl)-1-(((3S)-1-((3-cyano-1-azetidinyl)sulfonyl)-3-piperidinyl)carbonyl)-D-prolinamide]",0.7331
19,"Cc1ccc([C@@H](C)NC(=O)[C@H]2CCCN2C(=O)[C@H]2CCCN(S(=O)(=O)N3CC(C#N)C3)C2)cc1 [Example 285, 1-(((3S)-1-((3-cyano-1-azetidinyl)sulfonyl)-3-piperidinyl)carbonyl)-N-((1R)-1-(4-methylphenyl)ethyl)-D-prolinamide]",0.7351
20,"CS(=O)(=O)N1CC(F)(c2cccc(C(=O)N3CCC[C@@H]3C(=O)N[C@@H](c3ccc(C(F)(F)F)cc3F)C3CC3)c2)C1 [Example 286, N-((R)-cyclopropyl(2-fluoro-4-(trifluoromethyl)phenyl)methyl)-1-(3-(3-fluoro-1-(methylsulfonyl)-3-azetidinyl)benzoyl)-D-prolinamide]",0.7437
21,Cc1c(F)cccc1CNC(=O)[C@H]1CCCN1C(=O)[C@H]1CCCN(S(=O)(=O)N2CC(C#N)C2)C1 [Example 288],0.7452
22,"O=C(N[C@@H](c1cc(F)c(C(F)(F)F)cc1F)C1CC1)[C@H]1C[C@H]2C[C@H]2N1C(=O)c1cc(C(F)(F)F)ccn1 [Example 289, (1R,3R,5R)-N-((R)-cyclopropyl(2,5-difluoro-4-(trifluoromethyl)phenyl)methyl)-2-((4-(trifluoromethyl)-2-pyridinyl)carbonyl)-2-azabicyclo[3.1.0]hexane-3-carboxamide]",0.7506
23,"N#CC1CN(S(=O)(=O)N2CCN[C@H](C(=O)N3CCC[C@@H]3C(=O)NCc3ccc(Cl)cc3F)C2)C1 [Example 290, N-(4-chloro-2-fluorobenzyl)-1-(((2S)-4-((3-cyano-1-azetidinyl)sulfonyl)-2-piperazinyl)carbonyl)-D-prolinamide]",0.7542
24,"C[C@@H](NC(=O)[C@H]1CCCN1C(=O)[C@@H]1CN(S(=O)(=O)N2CC(C#N)C2)CCO1)c1ccc(Cl)cc1 [Example 291, N-((1R)-1-(4-chlorophenyl)ethyl)-1-(((2S)-4-((3-cyano-1-azetidinyl)sulfonyl)-2-morpholinyl)carbonyl)-D-prolinamide]",0.756
25,"CS(=O)(=O)c1cncc(C(=O)N2CCCC[C@@H]2C(=O)N[C@@H](c2cc(F)c(Cl)cc2F)C2CC2)c1 [Example 292, (2R)-N-((R)-(4-chloro-2,5-difluorophenyl)(cyclopropyl)methyl)-1-((5-(methylsulfonyl)-3-pyridinyl)carbonyl)-2-piperidinecarboxamide]",0.7577
26,"CC[C@H](NC(=O)[C@H]1CCCN1C(=O)[C@H]1CCCN(S(=O)(=O)N2CC(C#N)C2)C1)c1ccc(C(F)(F)F)cc1F [Example 293, 1-(((3S)-1-((3-cyano-1-azetidinyl)sulfonyl)-3-piperidinyl)carbonyl)-N-((1S)-1-(2-fluoro-4-(trifluoromethyl)phenyl)propyl)-D-prolinamide]",0.7603
27,"O=C(N[C@@H](c1cc(F)c(Cl)cc1F)C1CC1)[C@H]1C[C@H]2C[C@H]2N1C(=O)c1ccnc(S(=O)(=O)C2CC2)c1 [Example 295, (1R,3R,5R)-N-((R)-(4-chloro-2,5-difluorophenyl)(cyclopropyl)methyl)-2-((2-(cyclopropylsulfonyl)-4-pyridinyl)carbonyl)-2-azabicyclo[3.1.0]hexane-3-carboxamide]",0.7671

# Reference: patent publication US11780826B2 (Amgen Inc., priority 2017, dated 2023)
